According to PubChem BioAssay (NCI):
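Test compounds were applied to cells in 96-well plates for 48 hours at 5 doses. TGI: total growth inhibition.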

What was measured:
Assay in all cases: NCI tumour cell line growth inhibition, 48 h
OVCAR-5 ovarian = system: OVCAR-5 ovarian
COLO 205 colon = system: COLO 205 colon
IGROV1 ovarian = system: IGROV1 ovarian
HCT-116 colon = system: HCT-116 colon
SNB-19 CNS = system: SNB-19 CNS
SF-295 CNS = system: SF-295 CNS
SK-MEL-2 melanoma = system: SK-MEL-2 melanoma
EKVX NSCLC = system: EKVX NSCLC
MDA-MB-435 = system: MDA-MB-435
MDA-N = system: MDA-N
HCC-2998 colon = system: HCC-2998 colon

SMILES | TGI (OVCAR-5 ovarian) | TGI (COLO 205 colon) | TGI (IGROV1 ovarian) | TGI (HCT-116 colon) | TGI (SNB-19 CNS) | TGI (SF-295 CNS) | TGI (SK-MEL-2 melanoma) | TGI (EKVX NSCLC) | TGI (MDA-MB-435) | TGI (MDA-N) | TGI (HCC-2998 colon)
CCC(C)[C@@H](NCc1ccccc1)[C@H](OCc1ccccc1)[C@@H]1COC(C)(C)O1 (stereo not given in full) | 90.8 µM | 36.6 µM | 37.4 µM | 29.2 µM | 57.3 µM | 60.2 µM | 35 µM | 42.7 µM | > 100 µM | > 100 µM | –
O=C(O)CCCl | > 5000 µM | > 5000 µM | > 5000 µM | > 5000 µM | – | > 5000 µM | > 5000 µM | – | – | – | –
[O-]/[N+](=C\c1ccccc1)[C@H](COCc1ccccc1)c1ccccc1 | > 100 µM | > 100 µM | > 100 µM | > 100 µM | > 100 µM | > 100 µM | > 100 µM | > 100 µM | – | – | > 100 µM
COc1ccc(/C=C2\CN(C)Cc3c2nc(N)nc3-c2ccc(OC)cc2)cc1 | > 100 µM | > 100 µM | > 100 µM | > 100 µM | > 100 µM | > 100 µM | > 100 µM | > 100 µM | – | – | > 100 µM
O=C1CSC2(CC(/C=C/c3ccccc3)=NN2c2cccc(S(=O)(=O)O)c2)N1c1nc2ccccc2s1 (stereo not given) | 56.5 µM | > 100 µM | 56.6 µM | > 100 µM | 51.7 µM | – | 49.5 µM | > 100 µM | 37.2 µM | > 100 µM | > 100 µM
CC(C)(C)OC(=O)CN1CCNCCNCC1 | > 100 µM | > 100 µM | > 100 µM | > 100 µM | > 100 µM | > 100 µM | > 100 µM | > 100 µM | > 100 µM | > 100 µM | –
O=S(=O)(Oc1ccc2oc3ccccc3c2c1-c1c(OS(=O)(=O)C(F)(F)F)ccc2oc3ccccc3c12)C(F)(F)F | > 100 µM | > 100 µM | > 100 µM | > 100 µM | > 100 µM | > 100 µM | > 100 µM | > 100 µM | > 100 µM | – | > 100 µM
COc1c2c(c3c(c1C1OC(C)[C@@H](C)O1)CC(C)(C)O3)C(=O)c1ccccc1C2=O (stereo not given in full) | > 100 µM | > 100 µM | > 100 µM | > 100 µM | > 100 µM | > 100 µM | > 100 µM | > 100 µM | – | – | > 100 µM
C=C1C(=O)OC2/C=C(\C)C(OC(C)=O)C3OC3C(C)(O)CC(OC(=O)/C(C)=C/C)C12 (stereo not given) | 32.3 µM | 12.9 µM | 35.7 µM | 5.86 µM | 33.7 µM | 42.4 µM | 20.6 µM | 34.9 µM | – | – | 21.3 µM
c1csc(-c2ccc(-c3ccc(-c4ccc(-c5cccs5)s4)s3)s2)c1 | > 100 µM | > 100 µM | > 100 µM | > 100 µM | – | > 100 µM | – | > 100 µM | > 100 µM | – | > 100 µM
COc1ccc(-c2nc(N)c(C#N)c3c2CCS(=O)(=O)c2ccc(C)cc2-3)cc1OC | > 100 µM | 79.5 µM | > 100 µM | > 100 µM | > 100 µM | – | 85.2 µM | – | 91.6 µM | 51 µM | > 100 µM
O=C(O)[C@H]1[C@@H](C2CCCCC2)O[C@@H](C2CCCCC2)O[C@H]1C(F)(F)F | 47.4 µM | 77.9 µM | 35.9 µM | > 100 µM | 81.3 µM | 39.5 µM | – | 43.1 µM | 35.5 µM | 30.7 µM | 38.8 µM
CO/C(=N\N=C\c1cc(OC)ccc1OC)c1ccncc1 | > 10 µM | > 10 µM | > 10 µM | > 10 µM | > 10 µM | > 10 µM | > 10 µM | – | – | > 10 µM | > 10 µM
Cc1ccc(S(=O)(=O)N/N=C/c2oc(-c3cccc([N+](=O)[O-])c3)c(-c3cccc([N+](=O)[O-])c3)c2[N+](=O)[O-])cc1 | > 100 µM | > 100 µM | 91.2 µM | > 100 µM | > 100 µM | > 100 µM | 76.9 µM | > 100 µM | – | – | > 100 µM
C[N+]1(C)CCCC1C(=O)[O-] (stereo not given) | – | > 100 µM | > 100 µM | > 100 µM | > 100 µM | > 100 µM | > 100 µM | > 100 µM | – | – | > 100 µM
C/C=C/[C@@]1(OC(=O)c2ccccc2)C[C@@H]2CCCC[C@@H]21 | 30.8 µM | – | 32.1 µM | 29.4 µM | 31.6 µM | 33.3 µM | 30.3 µM | 31.7 µM | – | 33.4 µM | 44.3 µM
CCN(CC)CCNC(=O)c1ccccc1NC(=O)C(=O)Nc1ccccc1C(=O)NCCN(CC)CC | > 100 µM | 35.8 µM | > 100 µM | 43.3 µM | > 100 µM | > 100 µM | > 100 µM | > 100 µM | – | – | > 100 µM

SMILES | TGI (OVCAR-5 ovarian) | TGI (COLO 205 colon) | TGI (IGROV1 ovarian) | TGI (HCT-116 colon) | TGI (SNB-19 CNS) | TGI (SF-295 CNS) | TGI (SK-MEL-2 melanoma) | TGI (EKVX NSCLC) | TGI (MDA-MB-435) | TGI (MDA-N) | TGI (HCC-2998 colon)
Nc1nc2c(=O)c3ccccc3sc2s1 | > 100 µM | > 100 µM | > 100 µM | > 100 µM | > 100 µM | > 100 µM | > 100 µM | > 100 µM | > 100 µM | > 100 µM | –
O=C(Cn1c(=O)oc2ccc(C(=O)c3ccc(F)cc3)cc21)c1ccc([N+](=O)[O-])cc1 | > 100 µM | > 100 µM | 78.3 µM | > 100 µM | > 100 µM | – | 86.2 µM | – | 72.9 µM | 60.9 µM | 37.9 µM
CCCCNC1CCC2(SCCS2)c2[nH]c3ccccc3c21 (stereo not given) | > 100 µM | > 62.3 µM | > 100 µM | 50.1 µM | > 100 µM | > 100 µM | – | > 100 µM | > 49.6 µM | – | 38.8 µM
Nc1nc(N)c2ncn(CC3CCC(CO)C3)c2n1 (stereo not given) | > 100 µM | > 100 µM | – | > 100 µM | > 100 µM | > 100 µM | > 100 µM | > 100 µM | > 100 µM | > 100 µM | > 100 µM
CC12CC3C(CC1SCC(=O)O2)C3(C)C (stereo not given) | > 100 µM | > 100 µM | > 100 µM | > 100 µM | – | > 100 µM | > 100 µM | > 100 µM | – | – | > 100 µM
O=C(CSc1nnc(-c2ccc(N=Cc3ccc(Cl)cc3)cc2)o1)Nc1ccccc1Cl | – | > 100 µM | – | > 100 µM | > 100 µM | > 100 µM | > 100 µM | > 100 µM | – | – | –
COCOc1ccc(C(=O)C(C)c2ccc(OCOC)cc2OCOC)c(O)c1 (stereo not given) | > 100 µM | > 100 µM | > 100 µM | > 100 µM | > 100 µM | – | – | > 100 µM | > 100 µM | > 100 µM | > 100 µM
C1=C(c2ccccc2)CN(c2ccccc2)OC1 | > 100 µM | > 100 µM | > 100 µM | – | > 100 µM | – | > 100 µM | > 100 µM | – | – | > 100 µM
O=C1N[C@H]2c3c(Cl)sc(Cl)c3/C(=N/O)[C@H]2O1 | > 100 µM | > 100 µM | > 100 µM | > 100 µM | > 100 µM | – | > 100 µM | > 100 µM | > 100 µM | > 100 µM | > 100 µM
O=C(CSCC(=O)N/N=C/c1cc(I)cc(I)c1O)N/N=C/c1cc(I)cc(I)c1O | 82.5 µM | 63.8 µM | 25.3 µM | 33.9 µM | 36.6 µM | 47.1 µM | 47.4 µM | 79.2 µM | 92.9 µM | – | 38.1 µM
COc1ccc2oc(=N)c(C(=O)Nc3cccc4ccccc34)cc2c1 | > 100 µM | > 100 µM | – | > 100 µM | 48 µM | 25.4 µM | 85.7 µM | > 100 µM | 11.1 µM | 18.8 µM | > 100 µM
Clc1ccc2c(SCC3CO3)c3ccccc3nc2c1 (stereo not given) | 10.4 µM | 10.7 µM | 2.9 µM | 3.04 µM | 15.3 µM | 42.1 µM | 8.11 µM | 20.4 µM | 20.2 µM | – | 9.55 µM
CNC(=O)c1ccccc1-[s+]1c2ccccc2c(=O)n1C (stereo not given) | > 100 µM | > 100 µM | > 100 µM | > 100 µM | > 100 µM | > 100 µM | > 100 µM | > 100 µM | > 100 µM | > 100 µM | –
C1OCC2S[C@@H]3COCO[C@@H]3C2O1 (stereo not given in full) | > 100 µM | > 100 µM | – | > 100 µM | > 100 µM | > 100 µM | – | > 100 µM | – | – | > 100 µM
COc1cc(/C=C2/SC(c3ccccc3)N(c3ccc(NC(C)=O)cc3)C2=O)cc(OC)c1OC (stereo not given) | > 100 µM | > 100 µM | – | > 100 µM | > 100 µM | > 100 µM | > 100 µM | > 100 µM | > 100 µM | > 100 µM | > 100 µM
CN(C)CC(/C(Cc1ccccc1)=N\NC(=O)C[n+]1ccccc1)c1ccccc1 (stereo not given) | > 100 µM | > 100 µM | > 100 µM | > 100 µM | > 100 µM | > 100 µM | > 100 µM | > 100 µM | – | – | > 100 µM
COc1ccc(Cn2c(C)nc3c2C(=O)c2ccccc2C3=O)cc1 | – | 22.6 µM | 38.6 µM | 13 µM | > 75 µM | 58.2 µM | 29.8 µM | 49.2 µM | – | – | > 75 µM
